The subject of test [1] is neurones corticaux primaires de rat. The experiment in a line: Survival of primary cortical neurons intoxicated with Aβ 1-42 peptide (MAP-2 staining). Type of test: cell-based. As to conditions: pre-incubated 1 h before Aβ 1-42 20 µM. An excerpt:
(§1) Le but de cette étude est d'évaluer les effets de l'acide léontopodique B1 sur des neurones corticaux primaires de rat, intoxiqués par le peptide Aβ selon le modèle in vitro de la maladie d'Alzheimer décrit dans Callizot et al., 2013 (Callizot N. et al., Operational dissection of β-amyloid cytopathic effects on cultured neurons. J Neurosci Res. 2013, 91: 706-16). La survie des neurones et des astrocytes ainsi que l'intégrité du réseau de neurites sont évaluées.
(§2) Des neurones corticaux de rat sont cultivés comme décrit dans Singer et al., 1999 (Singer C. et al., Mitogen-activated protein kinase pathway mediates estrogen neuroprotection after glutamate toxicity in primary cortical neurons. J Neurosci. 1999, 19: 2455-2463) et Callizot et al. (2013).
(§3) En résumé, des rats femelles gravides sont tuées par dislocation cervicale après 15 jours de gestation. Les fœtus sont collectés et immédiatement placés dans un milieu glacé L15 Leibovitz (Pan Biotech, Batch: 8810315) additionné de 2% pénicilline (10,000 U/mL) et d'une solution de streptomycine (10 mg/mL) (PS; Pan Biotech, batch: 1451013) et 1% de albumine de sérum de bovin (BSA; Pan Biotech, batch: K180713). Le cortex est traité pendant 20 min à 37°C avec une solution de trypsine- EDTA (Pan Biotech, Batch: 3330914) à une concentration finale de 0,05% trypsine et 0,02% EDTA. […]

Test [2] concerns réseau de neurites de neurones corticaux primaires. The experiment in a line: Neurite network of primary cortical neurons intoxicated with Aβ 1-42 peptide (MAP-2 staining). Format: cell-based, rat. The conditions noted are these: two lowest concentrations 10 nM, 100 nM; pre-incubated 1 h before Aβ 1-42 20 µM, 24 h (Figure 2).
From the text: as §1, §2, §3

In test [3] the test system is astrocytes sains (non traités par le peptide Aβ 1-42). Nature of the test: Proliferation of pure healthy astrocytes (MTT test, CellTiter 96 Aqueous One Solution). Type of test: cell-based, rat (Wistar). The conditions noted are these: 4 days incubation, no Aβ 1-42 (Figure 4). The protocol: En résumé, le cerveau entier d'un embryon âgé de 15 jours de rat (Wistar) est prélevé. Le cerveau entier est dissocié par trypsinisation. Les cellules sont suspendues dans un milieu de culture du milieu DMEM (Dulbecco's modified Eagle's medium) complémenté avec 2% de pénicilline (10,000 U/mL) et d'une solution de streptomycine (10 mg/mL), et 10% de sérum de veau fœtal (FCS). Les cellules sont ensemencées à une densité de 267 000 cellules par cm^2 dans un flacon de culture. Au stade de la confluence cellulaire, le flacon est secoué pendant 3 heures. Le surnageant de la culture cellulaire est enlevé, les cellules sont traitées par une solution de trypsine- EDTA (Pan Biotech) à une concentration finale de 0,05% trypsine et de 0,02% EDTA. Ensuite les cellules sont congelées afin de constituer une lignée cellulaire d'astrocytes.
Les astrocytes (au stade : P4) sont ensemencées à une densité de 4 000 par puits d'une plaque de 96 puits avec de l'acide léontopodique B1 (dissous à différentes concentrations : 100 nM, 1 µM, 10 µM et 50 µM dans le milieu de culture) et sont cultivées à 37°C dans un incubateur contenant 95% d'air et 5% de CO2. Le milieu est changé tous les jours. Les astrocytes sont cultivés pendant 4 jours en présence d'acide léontopodique B1 avant de mesurer son effet sur la prolifération des astrocytes. […]
(In general: Tetrazolium dyes change colour on reduction, which living cells bring about.)

The next test relates to astrocytes. Nature of the test: Survival of astrocytes in primary cortical neuron culture intoxicated with Aβ 1-42 peptide (GFAP staining). Type of test: cell-based, rat. As to conditions: Aβ 1-42 20 µM, 24 h (Figure 3).
From the text: as §1, §2, §3

For `O=C(/C=C/c1ccc(O)c(O)c1)OC(C(=O)O)C(OC(=O)/C=C/c1ccc(O)c(O)c1)C(OC(=O)/C=C/c1ccc(O)c(O)c1)C(O)C(=O)O` (stereo not shown) [acide léontopodique B1, acide 3,4,5-tricaféoylhexarique], in test [1] (10 nM, 100 nM, 1 µM, 10 µM, 24 h, protective effect follows a bell-shaped curve (Figure 1)), the “effet sur la survie des neurones” value is “effet significatif et important”. Further, in test [1] (100 nM and 1 µM, 24 h (Figure 1)), the mort neuronale entry is listed as “aucune mort neuronale n'a été observée”. In addition, in test [2], the “effet sur le réseau de neurites” value is on record as “effet significatif et important”. The “effet sur la prolifération des astrocytes” value in test [3] (100 nM up to 50 µM) is listed as “aucun effet significatif”. In addition, in test [3] (highest concentration 50 µM), the concentration cellulaire entry is listed as “légère mais non significative diminution”. Besides, the “effet sur la survie des astrocytes” value with astrocytes (all concentrations (10 nM to 10 µM)) is “effet protecteur”. Also, in the test with astrocytes (three highest concentrations 100 nM, 1 µM, 10 µM), the “mort cellulaire (astrocytes)” value is given as “Aucune mort cellulaire n'a été observée”.

The record behind these values is patent EP3544951B1, “SUBSTITUTED HEXARIC ACID DERIVATIVES AND USES THEREOF” (Plant Advanced Technologies Pat, priority 2016, dated 2018).
